Test results reported in publication PMC5913134, “The IL-33-PIN1-IRAK-M axis is critical for type 2 immunity in IL-33-induced allergic airway inflammation” (Nature Communications, 2018).

How the values were obtained:
[1] = test system: Il6, Csf3, Cxcl2 and Ccl5 expression in DC2.4 cells; test: qRT-PCR of Il6, Csf3, Cxcl2 and Ccl5 in DC2.4 cells; format: cell-based, C57BL/6; conditions: for effect of ATRA on target gene expression: DC2.4, IL-33
Description: Also as indicated, some cells were pretreated for 3 days with 5 μM or 10 μM of ATRA before IL-33 induction. e Relative gene expression of Il6, Csf3, Cxcl2 and Ccl5 in the different samples as in d normalized to actin. f IRAK-M was stably expressed in pLKO or TET on shPin1 expressing cells, followed by induction with IL-33, before western blot to examine protein expression of IRAK-M, PIN1 and tubulin as well as g qRT-PCR to determine the relative gene expression for Il6, Csf3, Cxcl2 and Ccl5 in the different samples.
SYBR Green PCR Master Mix (Applied Biosystems, Foster City, CA) was used for two-step real-time RT-PCR analysis on an Applied Biosystems StepOnePlus Real Time PCR instrument. […] Expression value of the targeted gene in a given sample was normalized to the corresponding expression of Actin. The 2^–ΔΔCt method was used to calculate relative expression of the targeted genes.

[2] = test system: naive CD4^+ cells co-cultured with BMDCs; test: BMDC / naive CD4+ T cell co-culture TH2 polarization, IL-5 and IL-13 secretion; format: cell-based, C57 B6 mice; conditions: ATRA 5 µM, two days prior to and during co-culture, IL-33 50 ng/ml
Description: Supplementary Figure 7. IRAK-M KO or Pin1 KO derived bone marrow dendritic cells attenuates Naïve TH2 cell differentiation upon IL-33 induction in co culture experiment. Naïve CD4+ T cells isolated from C57 B6 mice were cultured with or without IL-33 (50ng/ml) and BMDCs isolated from WT, IRAK-M KO (a) or Pin1 KO mice (b) in a 1:5 ratio for 5 days with no antigen being added. In some cases as indicated 5 µM of ATRA was added to the medium two days prior to T cell co culturing and during the experiment. Supernatants were analyzed for cytokines on day 5. The data were analyzed by a Student's two-tailed t test and the values are reported as mean ± standard errors of the means (SEM). *- statistical significance (P<0.05), **- significance (P<0.01).

PIN1 = PIN1 expression in DC2.4 cells; format: cell-based, C57BL/6; conditions: ATRA 5 or 10 μM, 3 days pretreatment, before IL-33, DC2.4
IRAK-M = IRAK-M protein stability, cycloheximide chase; format: cell-based; conditions: PIN1-deficient MEFs (text PIN1 KD, Fig. 4g legend PIN1 KO) co-expressing IRAK-M with PIN1 mutant
Description: Fig. 4 PIN1 increases IRAK-M protein stabilization. a After IRAK-M and GFP were coexpressed in WT and PIN1 KO MEFs for 24 h, cells were split equally into 5 dishes. […] The data were analyzed by a Student’s two-tailed t test and the values are reported as mean ± standard errors of the means (SEM). *- statistical significance (P < 0.05), **- significance (P < 0.01)

| Compound | target gene expression (Il6, Csf3, Cxcl2, Ccl5) ([1]; ATRA, even at 5 µM, IRAK-M stably expressing DC2.4 cells, IL-33) | effect of ATRA on target gene expression ([1]; IRAK-M mutants S110E and P111A) | effect of ATRA on target gene expression ([1]; P111A mutant, 10 µM ATRA) | effect of ATRA on target gene expression ([1]; S110E mutant, 10 µM ATRA) | IL-33-induced IL-5 and IL-13 secretion, inhibition by ATRA [2] | PIN1 expression (PIN1) | effect on IRAK-M half-life (IRAK-M) |
| --- | --- | --- | --- | --- | --- | --- | --- |
| CC1=C(/C=C/C(C)=C/C=C/C(C)=C/C(=O)O)C(C)(C)CCC1 [ATRA, all-trans retinoic acid] | inhibited target gene expression | highly attenuated | completely abolished | some reduction in gene expression still persisted | significantly attenuated | reduced PIN1 expression |  |
| K63A: PIN1 PPIase domain mutant K63A (catalytically inactive) |  |  |  |  |  |  | neither binding nor isomerizing mutants had any effect |
| W34A: PIN1 WW domain mutant W34A (binding defective) |  |  |  |  |  |  | neither binding nor isomerizing mutants had any effect |
